US11840518B2, “Use of bromophenol-pyrazoline compounds for the treatment of feline coronavirus diseases” (Shandong Linghai Biotechnology Co., Ltd., priority 2021, dated 2023)

Assays:
FIPV = experiment: Clinical trial in cats infected with the FIPV (feline infectious peritonitis); assay type: in vivo; settings: for Moderate response: 4-week treatment
Source text: Serology or morphology cannot distinguish feline enteric coronavirus from the FIPV. According to the history, epidemiology, clinical symptoms, laboratory diagnosis, imaging examination and histopathological examination, the cats were diagnosed comprehensively after other diseases were ruled out.
Thirty cats infected with the FIPV were divided into a wet FIP group (n=17) and a dry FIP group (n=13) according to presence of significant pleural effusion, ascites, dyspnea and other symptoms (fibrous pleurisy and peritonitis). The wet FIP group (17 cats) was randomly divided into a control group (3 cats), a GS-441524 group (6 cats) and a compound 5 group (8 cats). The dry FIP group (13 cats) was randomly divided into a control group (2 cats), a GS-441524 group (5 cats) and a compound 5 group (6 cats).
For the wet and dry GS-441524 groups: 4.0 mg/kg was administered subcutaneously every 24 hours; and for the wet and dry compound 5 groups: 3 mg/kg was orally administered after dissolved in glucose solution once a day.
Rectal temperature was measured at least once a day, and body weight, respiration, appetite and activity were observed. Special people were arranged to feed the cats, and foodware was washed and disinfected every day. The cats with good appetite were fed with conventional cat food, and high protein pet food can was used as nutritional supplement. The cats with poor appetite were subject to nasal feeding and intravenous injection for nutritional supplement to ensure nutrition intake of the experimental cats. At the same time, defecation and urination were also observed in terms of volume and shape. The cats were examined for blood routine indexes, serum biochemical indicators and abdominal B ultrasound condition according to actual situation.
Cases with good appetite, body weight, respiration, body temperature and other body conditions at the completion of 4-week treatment, and examined for the blood routine indexes and serum biochemical indicators twice (more than 1 week apart) were defined as effective.

FIP = settings: 4 weeks of continuous treatment at 4 mg/kg; cited from earlier work
[1] = test system: FIPV wild strain in CRFK cells; experiment: Interference with FIPV replication in infected CRFK cells (qRT-PCR of vRNA in supernatant); assay type: cell-based, feline infectious peritonitis virus; settings: 5 μM, CRFK cells infected with wild-type FIPV, 24 hours; FIG. 2
Procedure: To further confirm in vitro enzymatic inhibition results, the inventors evaluated whether the bromophenol-pyrazoline compounds could prevent FIPV replication in clinical wild-type FIPV-infected Crandell-Rees feline kidney (CRFK) cells.
The CRFK cells were cultured with DMEM containing 8% fetal bovine serum in a cell incubator with 5% CO2 at 37° C. When the cells grew to a density of about 80%, the cells were pretreated with 5 μM bromophenol-pyrazoline compounds to be tested for 1 hour, and then an FIPV wild strain (MOI=0.1) was inoculated into the CRFK cells. The CRFK cells inoculated with virus but without the compounds were set up as controls. After 24 hours, a cell supernatant was collected, and vRNA in the supernatant was subject to qRT-PCR analysis.

[2] = dry FIP group, number of cats (GS-441524 group n=5, 4.0 mg/kg s.c.; compound 5 group n=6, 3 mg/kg oral)
[3] = dry FIP group, number of cats (GS-441524 group n=5; compound 5 group n=6)
[4] = wet FIP group, number of cats (GS-441524 group n=6, 4.0 mg/kg s.c.; compound 5 group n=8, 3 mg/kg oral)
[5] = wet FIP group, number of cats (GS-441524 group n=6; compound 5 group n=8)

Row | Compound | Clinical manifestations: treatment time after which the food intake recovered (FIPV; dry FIP group) | Death (FIPV; [2]) | Moderate response (FIPV; [3]) | Clinical manifestations: treatment time after which the food intake recovered (FIPV; wet FIP group) | Death (FIPV; [4]) | Moderate response (FIPV; [5]) | cats with the FIP in remission (FIP) | time within which ocular lesions in some cats began to resolve significantly (FIPV; Compound 5 treatment group) [h] | treatment time after which normal cat food was given (FIPV; Compound 5 treatment group) [days] | treatment time after which the body temperature returned to normal and the body weight increased (FIPV; Compound 5 treatment group) [days] | comparison with the positive drug GS-441524 group (FIPV; compound 5 3 mg/kg oral once a day vs GS-441524 4.0 mg/kg s.c. every 24 hours) | Clinical manifestations: time within which ocular lesions in some cats began to resolve significantly (FIPV; dry FIP group) | Clinical manifestations: treatment time after which normal/ordinary cat food was given (FIPV; dry FIP group) | Clinical manifestations: treatment time after which the intake returned to normal (FIPV; dry FIP group) | Clinical manifestations: treatment time after which ascites and dyspnea basically recovered (FIPV; wet FIP group) | Clinical manifestations: treatment time after which the normal cat food was given (FIPV; wet FIP group) | ability to interfere with the FIPV virus replication [1]
1 | N#C[C@@]1(c2ccc3c(N)ncnn23)O[C@H](CO)[C@@H](O)[C@H]1O [GS-441524, reference compound] | After 3 days of treat- | 0 | 3 | After 3 days of treat- | 1 | 3 | about 60% | – | – | – | – | – | – | – | – | – | –
2 | COc1ccc(C2=NN(C(N)=S)C(c3cc(O)c(O)c(Br)c3Br)C2)cc1 (stereo not drawn) [Compound 5] | – | 0 | 5 | – | 1 | 6 | – | ≤ 48 | 1 | 7 | faster onset of action, fewer deaths and higher response rate | 48 hours, and the | given after 1 day of days | normal after 3 days | after 10 days of | After 1 day of treat- | strongest ability to inhibit FIPV virus replication
